Values quoted from earlier work as cited in patent US20100209363A1, “PERSONAL CLEANSING COMPOSITION INCLUDING A STRUCTURED SURFACTANT SYSTEM AND A SUN PROTECTION FACTOR COMPOSITION” (The Dial Corporation, priority 2009, published 2010).

Conditions: in capric triglyceride

Structure (SMILES): COc1ccc(C(=O)CC(=O)c2ccc(C(C)(C)C)cc2)cc1 [avobenzone, 4-tert-butyl-4′-methoxydibenzoylmethane]
- concentration up to which miscible with capric triglyceride: up to 16 wt. %
- miscibility with capric triglyceride: miscible

Structure (SMILES): CCCCC(CC)COC(=O)C(C#N)=C(c1ccccc1)c1ccccc1 (stereo not drawn) [octocrylene, 2-ethylhexyl 2-cyano-3,3-diphenylacrylate]
- miscibility with capric triglyceride: miscible
